# In US20080167271A1, “PHARMACEUTICAL COMPOSITIONS COMPRISING A BISPHOSPHONATE COMPOUND” (Besins Healthcare SA, priority 2006, published 2008):
# Read-outs that look alike come from different tables or passages of the source.
# How the values were obtained:
# [1] = Bisphosphonate concentration at about 90% saturation in vehicles; assay type: physicochemical
# ovariectomized rats = test system: ovariectomized rats
# Source text: Ovariectomized rats are a recognised model for bone loss study, as the surgical operation causes an estrogen deficiency which results in rapid bone loss. See Guideline on the evaluation of medicinal products in the treatment of primary osteoporosis, CPMP/EWP/552/95 available for download from the European Medicine Agency at: http://www.emea.europa.eu/.
# 13-week old rats (Sprague-Dawley, virgin female), 8 per group, were sham operated (group 1-control) or ovariectomized (OVX) (groups 2 to 7) on the day before the first day of treatment. […] The ratio of D-Pyr to Creat is a recognised marker of bone resorption. See, e.g., Christenson RH “Biochemical markers of bone metabolism: an overview” Clin Biochem 1997, 30(8), 573-593.
# Femur and L2-L5 lumbar vertebrae block Bone Mineral Density (BMD) were calculated from in vivo Dual-energy X-ray Absorptiometry (DXA) measurement at the same time points with an Hologic apparatus. BMD was also measured ex vivo on dissected femur and L4 vertebrae at the end of the treatment period.
# [2] = humans; cited from earlier work
# [3] = rat, published data (Lin et al., J Pharm Sci); cited from earlier work
# [4] = Solubility of menthol in hydroalcoholic mixtures with bisphosphonate at 90% saturation (GC-FID); conditions: QS 100 g phosphate buffer pH 6
# [5] = test system: human abdominal dermatomed skin; assay: In vitro dermal absorption, Franz cell assay; assay type: in vitro ADME
# [6] = buffered hydroalcoholic solution 90/10 buffer/ethanol
# [7] = group 3: OVX rats, 2 μg/kg sc inj daily
# [8] = group 4: OVX rats, topical 4.46 mg/kg daily (15.6 mg/kg/d for first 2 weeks)
# [9] = group 5: OVX rats, topical 15.6 mg/kg weekly
# [10] = group 7: OVX rats, topical 10.85 mg/kg twice weekly (15.6 mg/kg twice a week for first 2 weeks)
smiles,measurement,setting,value
O=P([O-])(O)C(O)(Cc1cccnc1)P(=O)(O)O.[Na+] [Sodium Risedronate],anhydrous concentration (w/w) at about 90% saturation,[1]; Water/ethanol ratio (v/v) 50/50,0.02%
same,anhydrous concentration (w/w) at about 90% saturation,[1]; Water/ethanol ratio (v/v) 60/40,0.17%
same,anhydrous concentration (w/w) at about 90% saturation,[1]; Water/ethanol ratio (v/v) 70/30,0.22%
same,anhydrous concentration (w/w) at about 90% saturation,[1]; Water/ethanol ratio (v/v) 80/20,0.77%
same,anhydrous concentration (w/w) at about 90% saturation,[1]; Water/ethanol ratio (v/v) 90/10,1.66%
"NCCCC(O)(P(=O)(O)O)P(=O)(O)O [alendronate, 4-amino-1-hydroxybutylidene-1,1-bisphosphonic acid]",concentration of anhydrous monosodium salt at 90% saturation,[1]; [6],10.4 mg/g
same,concentration of anhydrous monosodium salt at 90% saturation,[1]; pure water,28.09 mg/g
same,BMD results compared with subcutaneous injection (group 3) or control (group 1),"ovariectomized rats; OVX rats treated with topical alendronate, groups 4-7",similar
same,Ex vivo BMD L4 vertebrae Week 8,ovariectomized rats; [7],0.251 ± 0.012 g/cm^2
same,In vivo BMD Vertebrae Evolution (Week 8 − Baseline),ovariectomized rats; [7],0.035 ± 0.01 g/cm^2
same,In vivo BMD metaphysis Week 8,ovariectomized rats; [7],0.243 ± 0.029 g/cm^2
same,In vivo BMD total femur Evolution (Week 8 − Baseline),ovariectomized rats; [7],0.035 ± 0.015 g/cm^2
same,In vivo BMD total femur Week 8,ovariectomized rats; [7],0.291 ± 0.013 g/cm^2
same,Ex vivo BMD L4 vertebrae Week 8,ovariectomized rats; [8],0.26 ± 0.01 g/cm^2
same,In vivo BMD Vertebrae Evolution (Week 8 − Baseline),ovariectomized rats; [8],0.035 ± 0.012 g/cm^2
same,In vivo BMD metaphysis Week 8,ovariectomized rats; [8],0.270 ± 0.032 g/cm^2
same,In vivo BMD total femur Evolution (Week 8 − Baseline),ovariectomized rats; [8],0.04 ± 0.008 g/cm^2
same,In vivo BMD total femur Week 8,ovariectomized rats; [8],0.302 ± 0.015 g/cm^2
same,Ex vivo BMD L4 vertebrae Week 8,ovariectomized rats; [9],0.255 ± 0.017 g/cm^2
same,In vivo BMD Vertebrae Evolution (Week 8 − Baseline),ovariectomized rats; [9],0.023 ± 0.012 g/cm^2
same,In vivo BMD metaphysis Week 8,ovariectomized rats; [9],0.252 ± 0.009 g/cm^2
same,In vivo BMD total femur Evolution (Week 8 − Baseline),ovariectomized rats; [9],0.023 ± 0.016 g/cm^2
same,In vivo BMD total femur Week 8,ovariectomized rats; [9],0.293 ± 0.011 g/cm^2
same,Ex vivo BMD L4 vertebrae Week 8,ovariectomized rats; [10],0.261 ± 0.015 g/cm^2
same,In vivo BMD Vertebrae Evolution (Week 8 − Baseline),ovariectomized rats; [10],0.028 ± 0.008 g/cm^2
same,In vivo BMD metaphysis Week 8,ovariectomized rats; [10],0.264 ± 0.027 g/cm^2
same,In vivo BMD total femur Evolution (Week 8 − Baseline),ovariectomized rats; [10],0.032 ± 0.025 g/cm^2
same,In vivo BMD total femur Week 8,ovariectomized rats; [10],0.304 ± 0.024 g/cm^2
same,dermal tolerance problems,"ovariectomized rats; groups 4 and 7, topical 15.6 mg/kg/d and 15.6 mg/kg twice a week, doses reduced after 2 weeks",formation of dry scabs
same,BMD in the distal metaphysis (part of femur) compared with subcutaneous injection group (group 3),ovariectomized rats; topically treated groups 4 and 7,statistically higher
same,systemic dose recovered in the urine,[2],approximately 50%
same,bone recovery after oral administration,[3],0.9%
CC1CCC(C(C)C)C(O)C1 (stereo not shown) [menthol],Solubility of menthol in the presence of sodium alendronate,[4]; 10 g ethanol absolute,70 mg/100 g
same,Solubility of menthol in the presence of sodium risedronate,[4]; 10 g ethanol absolute,80 mg/100 g
same,Solubility of menthol in the presence of sodium alendronate,[4]; 20 g ethanol absolute,120 mg/100 g
same,Solubility of menthol in the presence of sodium risedronate,[4]; 20 g ethanol absolute,140 mg/100 g
"O=P(O)(O)C(O)(Cc1cccnc1)P(=O)(O)O [risedronate, 1-hydroxy-2-(3-pyridyl)ethylidene-1,1-bisphosphonic acid]",concentration of anhydrous monosodium salt at 90% saturation,[1]; [6],22.4 mg/g
same,concentration of anhydrous monosodium salt at 90% saturation,[1]; pure water,45.3 mg/g
same,effect of glycerine on amount recovered in the receptor fluid and the dermis,[5]; FIGS. 12-13,does not significantly increase
same,percutaneous absorption: recovery in the receptor fluid and the dermis,"[5]; Franz cell, human skin, 24 hrs",does cross the skin
same,effect of urea on amount recovered in the receptor fluid and dermis/skin,"[5]; buffered solution vs 100% phosphate buffer, FIGS. 10-11",increases
same,effect of menthol on amount recovered in the receptor fluid and dermis,"[5]; menthol at 90% of saturating concentration in 90/10 phosphate buffer/ethanol vs phosphate buffer solution, FIGS. 6-7",does not increase
same,amount recovered in the receptor fluid and the dermis with oleic acid,"[5]; oleic acid at 90% of maximum solubility in 90/10 phosphate buffer/ethanol with Tween 80 4.5%, vs 100% phosphate buffer solution",lower
same,effect of urea on amount recovered in the receptor fluid and dermis,"[5]; urea in phosphate buffer solution, FIGS. 8-9",neutral effect
same,effect of propylene glycol (PG) on amount recovered,"[5]; vs 100% phosphate buffer solution, FIGS. 10-11",does not significantly affect
same,effect of the increase in alcohol content on absorption (percentage of the dose applied),"[5]; water/alcohol solutions, FIGS. 1-2",slightly increased
